Measurements reported in ChEMBL document CHEMBL1921744, “Lipophosphonoxins: new modular molecular structures with significant antibacterial properties” (J Med Chem, 2011).
Converted amounts (≈) assume the structure as drawn.

Tested on: Mycobacterium tuberculosis
Assay: Antimycobacterial activity against drug-resistant Mycobacterium tuberculosis
Format: functional

Compound: CO[C@@H]1[C@@H](OC)[C@H](C)O[C@@H](OC(=O)C[C@@H](C)CC(=O)O[C@@H](CCCCCCCCCCCC(C)C)CC(=O)O[C@H]2CN(C)[C@@H]([C@H](O[C@@H]3O[C@H](CN)[C@@H](O)[C@H]3O)[C@H]3O[C@@H](n4ccc(=O)[nH]c4=O)[C@H](O)[C@@H]3O)C(=O)N(C)[C@@H]2C(=O)O)[C@@H]1OC [CAPRAZAMYCIN B]
- MIC: 3.13 µg/mL (≈ 2.7 µM)
